Source: paper PMC11784013, “Potassium molybdate blocks APN-dependent coronavirus entry by degrading receptor via PIK3C3-mediated autophagy” (Journal of Virology, 2024)

Columns and labels:
TGEV Miller = test: TGEV infection of ST cells (RT-qPCR, TCID50, western blot, IFA); assay type: cell-based, transmissible gastroenteritis virus; conditions: TGEV Miller 0.1 MOI, PM 1 h pretreatment and 17 h after infection, TCID50, western blot, IFA
Procedure: Fig 1 PM inhibits TGEV and PRCV infection in ST cells. (A) A cytotoxicity assay of PM in ST cells. ST cells cultured in a 96-well plate were incubated with different concentrations of PM for 24 h, which was tested by Cell Counting Kit 8. (B) Time course for PM inhibiting TGEV or PRCV or PEDV infection assay. (C–F) The ST cells, pretreated with PM at the indicated concentrations for 1 h were infected with TGEV Miller (0.1 MOI) or PRCV (0.1 MOI) for 1 h and were again treated with PM at 37°C for 17 h. The cell samples were collected and examined by real-time quantitative PCR (RT-qPCR), TCID50, western blot (C and D), and immunofluorescence assay (IFA) (E and F), scale bar: 50 µm. (G) Vero-E6 cells were treated with indicated PM and infected with PEDV LJX 01/2014 according to the time course of Fig. 1B, which was detected by TCID50 and western blot. Results are presented as mean ± SD of data from three independent experiments. ns, no significant; **, P ≤ 0.01; ***, P ≤ 0.001.
Fig 3 PM inhibits TGEV and PRCV infection by potassium ion and molybdate synergy. […] The cell samples were measured by RT-qPCR. (C and D) ST cells were treated with PM (K2MoO4, 10 mM), KCl (20 mM), Na2MoO4 (10 mM), sodium chloride (NaCl, 10 mM), K2MoO4 (10 mM), and NaCl (20 mM) as well as Na2MoO4 (10 mM) and KCl (20 mM) for 1 h and then infected with TGEV Miller (0.1 MOI) or PRCV (0.1 MOI) for 17 h, which was determined by RT-qPCR and TCID50. […]
Total RNA was extracted using RNAiso reagent (TaKaRa, Japan, 9109) and reverse transcribed into cDNA using HiScript Q RT SuperMix for qPCR (Vazyme, China, R223-01), both of which followed the manufacturer’s recommendations. The TGEV and PRCV virus copy numbers were detected by the TaqMan probe-based RT-qPCR method developed previously in our laboratory ([59]). Relative qPCR was also performed using ChamQ SYBR qPCR master mix (Vazyme, China, Q311-02), and the results were calculated via the 2^-ΔΔCT method.

BECN1 = BECN1 expression in ST cells (western blot); assay type: cell-based, porcine; conditions: Fig. S8A, PM 10 mM, PRCV 0.1 MOI, 16 h
Procedure: Fig 7 PM degrades APN expression via activating PIK3C3-mediated autophagy. (A) Graphical representation for autophagy and the targets of different autophagy inhibitors. (B) ST cells were treated with PM (10 mM) in the presence and absence of 3-MA (20 mM), SBI0206965 (20 µM), and 3BDO (30 µM) for 16 h, and the APN expression was detected by western blot. (C) ST cells were treated with PM (10 mM) in the presence and absence of 3-MA (20 mM) for 16 h, and the APN, PIK3C3, ATG14, BECN1, P62, and LC3 were measured by western blot. (D) ST cells were transfected with PIK3C3 siRNA-1, PIK3C3 siRNA-2, PIK3C3 siRNA-3, PIK3C3 siRNA-4, and NC siRNA for 24 h, the PIK3C3 expression was detected by western blot. […] The APN, PIK3C3, ATG14, BECN1, P62, and LC3 were detected by western blot. […] (G) PIK3C3 was detected by western blot in WT ST cells and PIK3C3 KO ST cells. (H) WT ST cells and PIK3C3 KO ST cells were treated with PM (10 mM) for 16 h and then the APN, PIK3C3, ATG14, BECN1, P62, and LC3 were detected by western blot. […] The APN, PIK3C3, P62, and LC3 were detected by western blot. All western blot results were calculated by Image J. All experiments were performed in triplicate.
Fig. S8. […] Then the APN, PIK3C3, ATG14, BECN1, P62, PRCV N and LC3 were detected by western blot (A), and viral titers and PRCV N mRNA level were determined by TCID50 (B) and RT-qPCR (C) . […]

## [K+].[K+].[O]=[Mo](=[O])([O-])[O-] [PM, potassium molybdate]
TGEV Miller
  TGEV infection: effectively restricted
BECN1; PIK3C3 KO ST cells
  BECN1 level, western blot, relative to WT without PM (=1): 0.95
BECN1; WT ST cells
  BECN1 level, western blot, relative to WT without PM (=1): 1.01
